# Data: US11987588B2, “Modulators of the beta-3 adrenergic receptor useful for the treatment or prevention of heart failure and disorders related thereto” (Arena Pharmaceuticals, Inc., priority 2017, dated 2024)
# pIC50: −log10 of the molar value.
# Molecular target: Beta-3 Adrenergic Receptor (Homo sapiens (Human), UniProt P13945)
# Assay: Homogeneous Time-Resolved Fluorescence (HTRF) cAMP antagonist assay, IC50 determination
# Type: cell-based
# Conditions: CHO-K1 cells stably expressing recombinant receptor, isoproterenol at EC90
# Summary of the method: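 CHO-K1 cells stably expressing receptor, 1500 cells/well, preincubated briefly with 10-point 5-fold compound series (top final typically 10 or 100 μM) in PBS with 1 mM IBMX, then challenged with isoproterenol at EC90 for 1 h at room temperature. cAMP read by HTRF against on-plate standard curve; IC50 from dose-response.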
# Chain of Beta-3 Adrenergic Receptor (P13945 whole entry, species assumed): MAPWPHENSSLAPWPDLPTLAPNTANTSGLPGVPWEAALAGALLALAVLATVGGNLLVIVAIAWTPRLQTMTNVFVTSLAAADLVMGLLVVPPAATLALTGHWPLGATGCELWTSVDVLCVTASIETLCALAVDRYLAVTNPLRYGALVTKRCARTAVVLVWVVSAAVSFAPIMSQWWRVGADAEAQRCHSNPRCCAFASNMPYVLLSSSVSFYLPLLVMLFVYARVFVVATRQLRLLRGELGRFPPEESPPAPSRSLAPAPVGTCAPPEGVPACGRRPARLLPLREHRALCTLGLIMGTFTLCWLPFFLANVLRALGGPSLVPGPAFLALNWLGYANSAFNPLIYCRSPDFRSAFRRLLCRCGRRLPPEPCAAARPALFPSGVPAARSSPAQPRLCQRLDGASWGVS
row,Compound,pIC50
1,"CNS(=O)(=O)c1cccc(OC[C@@H](O)CNC2COC3(CCN(S(=O)(=O)c4ccc5c(c4)N(C)CCO5)CC3)C2)c1 (stereo partly drawn) [Compound 189, 3-((2S)-2-hydroxy-3-(8-(4-methyl-3,4-dihydro-2H-benzo[b][1,4]oxazin-6-ylsulfonyl)-1-oxa-8-azaspiro[4.5]decan-3-ylamino)propoxy)-N-methylbenzenesulfonamide]",8.07
2,"CNS(=O)(=O)c1cccc(OC[C@@H](O)CN[C@H]2COC3(CCN(S(=O)(=O)c4cnc5ccccc5c4)CC3)C2)c1 [Compound 336, 3-((S)-2-hydroxy-3-((R)-8-(quinolin-3-ylsulfonyl)-1-oxa-8-azaspiro[4.5]decan-3-ylamino)propoxy)-N-methylbenzenesulfonamide]",7.82
3,"CNS(=O)(=O)c1cccc(OC[C@@H](O)CNC2COC3(CCN(S(=O)(=O)c4cccnc4N(C)C)CC3)C2)c1 (stereo partly drawn) [Compound 441, 3-((2S)-3-(8-(2-(dimethylamino)pyridin-3-ylsulfonyl)-1-oxa-8-azaspiro[4.5]decan-3-ylamino)-2-hydroxypropoxy)-N-methylbenzenesulfonamide]",7.09
4,"CNS(=O)(=O)c1cccc(OC[C@@H](O)CNC2COC3(CCN(S(=O)(=O)c4ccc(C)c(Br)c4)CC3)C2)c1 (stereo partly drawn) [Compound 218, 3-((2S)-3-(8-(3-bromo-4-methylphenylsulfonyl)-1-oxa-8-azaspiro[4.5]decan-3-ylamino)-2-hydroxypropoxy)-N-methylbenzenesulfonamide]",7.41
5,"CN(C)S(=O)(=O)c1cccc(OC[C@@H](O)CNC2COC3(CCN(S(=O)(=O)c4ccc5c(c4)CCCC5)CC3)C2)c1 (stereo partly drawn) [Compound 253, 3-((2S)-2-hydroxy-3-(8-(5,6,7,8-tetrahydronaphthalen-2-ylsulfonyl)-1-oxa-8-azaspiro[4.5]decan-3-ylamino)propoxy)-N,N-dimethylbenzenesulfonamide]",7.65
6,"CNS(=O)(=O)c1cccc(OC[C@@H](O)CNC2COC3(CCN(S(=O)(=O)c4ccc(OC)c5ccccc45)CC3)C2)c1 (stereo partly drawn) [Compound 258, 3-((2S)-2-hydroxy-3-(8-(4-methoxynaphthalen-1-ylsulfonyl)-1-oxa-8-azaspiro[4.5]decan-3-ylamino)propoxy)-N-methylbenzenesulfonamide]",7.17
7,"CNS(=O)(=O)c1cccc(OC[C@@H](O)CNC2COC3(CCN(S(=O)(=O)c4cccc(-c5ccsc5)c4)CC3)C2)c1 (stereo partly drawn) [Compound 66, 3-((2S)-2-hydroxy-3-(8-(3-(thiophen-3-yl)phenylsulfonyl)-1-oxa-8-azaspiro[4.5]decan-3-ylamino)propoxy)-N-methylbenzenesulfonamide]",7.64
8,"CNS(=O)(=O)c1cccc(OC[C@@H](O)CN[C@H]2COC3(CCN(S(=O)(=O)c4cnc5c(c4)CCCO5)CC3)C2)c1 [Compound 483, 3-((S)-3-((R)-8-(3,4-dihydro-2H-pyrano[2,3-b]pyridin-6-ylsulfonyl)-1-oxa-8-azaspiro[4.5]decan-3-ylamino)-2-hydroxypropoxy)-N-methylbenzenesulfonamide]",7.38
9,"CNS(=O)(=O)c1cccc(OC[C@@H](O)CNC2COC3(CCN(S(=O)(=O)c4c(F)cccc4F)CC3)C2)c1 (stereo partly drawn) [Compound 156, 3-((2S)-3-(8-(2,6-difluorophenylsulfonyl)-1-oxa-8-azaspiro[4.5]decan-3-ylamino)-2-hydroxypropoxy)-N-methylbenzenesulfonamide]",7.60
10,"CNS(=O)(=O)c1cccc(OC[C@@H](O)CNC2COC3(CCN(S(=O)(=O)c4cc(C)cc(C)c4)CC3)C2)c1 (stereo partly drawn) [Compound 23, 3-((2S)-3-(8-(3,5-dimethylphenylsulfonyl)-1-oxa-8-azaspiro[4.5]decan-3-ylamino)-2-hydroxypropoxy)-N-methylbenzenesulfonamide]",7.86
11,"Cc1nc2cc(S(=O)(=O)N3CCC4(CC3)C[C@@H](NC[C@H](O)COc3cccc(S(N)(=O)=O)c3)CO4)cnc2[nH]1 [Compound 559, 3-((S)-2-hydroxy-3-((R)-8-(2-methyl-3H-imidazo[4,5-b]pyridin-6-ylsulfonyl)-1-oxa-8-azaspiro[4.5]decan-3-ylamino)propoxy)benzenesulfonamide]",7.46
12,"CNS(=O)(=O)c1cccc(OC[C@@H](O)CNC2COC3(CCN(S(=O)(=O)c4cncc(-c5cnn(C)c5)c4)CC3)C2)c1 (stereo partly drawn) [Compound 342, 3-((2S)-2-hydroxy-3-(8-(5-(1-methyl-1H-pyrazol-4-yl)pyridin-3-ylsulfonyl)-1-oxa-8-azaspiro[4.5]decan-3-ylamino)propoxy)-N-methylbenzenesulfonamide]",7.37
13,"COCCN(C)S(=O)(=O)c1cccc(OC[C@@H](O)CNC2COC3(CCN(S(=O)(=O)c4ccc5ccccc5c4)CC3)C2)c1 (stereo partly drawn) [Compound 60, 3-((2S)-2-hydroxy-3-(8-(naphthalen-2-ylsulfonyl)-1-oxa-8-azaspiro[4.5]decan-3-ylamino)propoxy)-N-(2-methoxyethyl)-N-methylbenzenesulfonamide]",7.23
14,"Cc1cc(S(=O)(=O)N2CCC3(CC2)CC(NC[C@H](O)COc2cccc(S(=O)(=O)NCCCN(C)C)c2)CO3)ccc1Br (stereo partly drawn) [Compound 310, 3-((2S)-3-(8-(4-bromo-3-methylphenylsulfonyl)-1-oxa-8-azaspiro[4.5]decan-3-ylamino)-2-hydroxypropoxy)-N-(3-(dimethylamino)propyl)benzenesulfonamide]",6.06
15,"CNS(=O)(=O)c1cccc(OC[C@@H](O)CN[C@H]2COC3(CCN(S(=O)(=O)c4cnc5c(F)cccc5c4O)CC3)C2)c1 [Compound 540, 3-((S)-3-((R)-8-(8-fluoro-4-hydroxyquinolin-3-ylsulfonyl)-1-oxa-8-azaspiro[4.5]decan-3-ylamino)-2-hydroxypropoxy)-N-methylbenzenesulfonamide]",7.49
16,"CNS(=O)(=O)c1cccc(OC[C@@H](O)CN[C@H]2COC3(CCN(S(=O)(=O)c4ccc5[nH]c(C)nc5c4)CC3)C2)c1 [Compound 501, 3-((S)-2-hydroxy-3-((R)-8-(2-methyl-1H-benzo[d]imidazol-5-ylsulfonyl)-1-oxa-8-azaspiro[4.5]decan-3-ylamino)propoxy)-N-methylbenzenesulfonamide]",7.64
17,"CNS(=O)(=O)c1cccc(OC[C@@H](O)CNC2COC3(CCN(S(=O)(=O)c4ccccc4F)CC3)C2)c1 (stereo partly drawn) [Compound 34, 3-((2S)-3-(8-(2-fluorophenylsulfonyl)-1-oxa-8-azaspiro[4.5]decan-3-ylamino)-2-hydroxypropoxy)-N-methylbenzenesulfonamide]",7.62
18,"CNS(=O)(=O)c1cccc(OC[C@@H](O)CNC2COC3(CCN(S(=O)(=O)c4cccc(-c5ccc(CNCCNC(C)=O)cc5)c4)CC3)C2)c1 (stereo partly drawn) [Compound 348, N-(2-((3′-(3-((S)-2-hydroxy-3-(3-(N-methylsulfamoyl)phenoxy)propylamino)-1-oxa-8-azaspiro[4.5]decan-8-ylsulfonyl)biphenyl-4-yl)methylamino)ethyl)acetamide]",7.44
19,"CNS(=O)(=O)c1cccc(OC[C@@H](O)CNC2COC3(CCN(S(=O)(=O)c4ccc(Br)cc4)CC3)C2)c1 (stereo partly drawn) [Compound 52, 3-((2S)-3-(8-(4-bromophenylsulfonyl)-1-oxa-8-azaspiro[4.5]decan-3-ylamino)-2-hydroxypropoxy)-N-methylbenzenesulfonamide]",7.85
